ChEMBL document CHEMBL3137667, “[Drug-induced liver injury; fourteenth updated edition of the bibliographic database of liver injuries and related drugs]” (Gastroenterol Clin Biol, 2004)

Key:
[1] = Highest frequency of moderate liver toxicity observed during clinical trials, expressed as a percentage. [column '% BIOL' in source]; conditions: human
[2] = Highest frequency of acute liver toxicity observed during clinical trials, expressed as a percentage. [column '% AIGUE' in source]; conditions: human
[3] = human, serum
[4] = human, serum; remark: listed apart in the source
[5] = human
[6] = human; remark: listed apart in the source
[7] = human; remark: listed apart in the source
[8] = human, serum, 4383 h
[9] = human; remark: listed apart in the source
[10] = human; remark: listed apart in the source
[11] = human; remark: listed apart in the source
[12] = human; remark: listed apart in the source
[13] = human; remark: listed apart in the source
[14] = human; remark: listed apart in the source
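Wherever Hepatotoxicity (association with vascular disease) is given: count of indexed literature references reporting vascular liver injury in humans, e.g. peliosis hepatitis, hepatic veno-occlusive disease or Budd-Chiari syndrome.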
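Wherever Hepatotoxicity (benign tumour) is given: value is a count of indexed literature references citing a benign tumour confirmed by histopathology.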
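Wherever Hepatotoxicity (choleostasis) is given: human cholestatic liver injury, shown by histopathology or by peak ALT or AST elevation over alkaline phosphatase ratio below 2, value counts indexed literature reports.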
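Wherever Hepatotoxicity (chronic liver disease) is given: chronic liver injury confirmed by histopathology or persistently raised serum aminotransferase activity beyond 6 months, value given as the count of indexed literature references.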
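Wherever Hepatotoxicity (cirrhosis) is given: value is a count of indexed literature references reporting cirrhosis confirmed by histopathology.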
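Wherever Hepatotoxicity (cytolytic) is given: human cytolytic liver injury, shown by histopathology or by a ratio above 5 of peak ALT or AST elevation to alkaline phosphatase elevation, value counts indexed references.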
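Wherever Hepatotoxicity (granulomatous hepatitis) is given: value is a count of indexed literature references reporting granulomatous liver disease confirmed by histopathology.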
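Wherever Hepatotoxicity (malignant tumour) is given: malignant tumour confirmed by histopathology, value gives the count of indexed literature references reporting it.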
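Wherever Hepatotoxicity (severe hepatitis) is given: human clinical data: severe hepatitis, meaning potentially life-threatening liver failure or clinically observed cases, the value counts how many indexed literature references report it.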
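Wherever Hepatotoxicity (steatosis) is given: steatosis confirmed by histopathology, value is the count of indexed references.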

Structure (SMILES)	Hepatotoxicity (moderate) [1]	Hepatotoxicity (acute) [2]	Hepatotoxicity (moderate) [3]	Hepatotoxicity (acute) [4]	Hepatotoxicity (cytolytic) [5]	Hepatotoxicity (choleostasis) [6]	Hepatotoxicity (severe hepatitis) [7]	Hepatotoxicity (chronic liver disease) [8]	Hepatotoxicity (cirrhosis) [9]	Hepatotoxicity (granulomatous hepatitis) [10]	Hepatotoxicity (association with vascular disease) [11]	Hepatotoxicity (steatosis) [12]	Hepatotoxicity (malignant tumour) [13]	Hepatotoxicity (benign tumour) [14]	Hepatotoxicity (moderate) ([1]; Liver)	Hepatotoxicity (acute) ([2]; Liver)	Hepatotoxicity (cytolytic) ([5]; Liver)	Hepatotoxicity (choleostasis) ([6]; Liver)	Hepatotoxicity (severe hepatitis) ([7]; Liver)	Hepatotoxicity (granulomatous hepatitis) ([10]; Liver)
C[C@]1(O)CC[C@H]2[C@@H]3CCC4=CC(=O)CC[C@@H]4[C@H]3CC[C@@]21C [NORMETHANDRONE]	0%	0%	0	2	0	1	0	0	0	0	0	0	0	0						
O=C(O)[C@@H](S)[C@@H](S)C(=O)O	56.7%	0%	3	0	0	0	0	0	0	0	0	0	0	0						
Nc1nc(N)nc(Nc2ccc([As]3SCC(CO)S3)cc2)n1 (stereo unspecified) [MELARSOPROL]	1%	0%	3	0	0	0	0	0	0	0	0	0	0	0						
NC1CCN(c2nc3c(cc2F)c(=O)c(C(=O)O)cn3-c2ccc(F)cc2F)C1 (stereo unspecified) [TOSUFLOXACIN]	6.1%	0%	3	0	0	0	0	0	0	0	0	0	0	0						
Cc1c(C)c2ccc(OCCCN3CCN(Cc4ccc(Cl)cc4)CC3)cc2oc1=O	2%	0%	1	0	0	0	0	0	0	0	0	0	0	0						
Cn1nnc2c(C(N)=O)ncn2c1=O [TEMOZOLOMIDE]	47.5%	3%	1	1	1	0	0	0	0	0	0	0	0	0						
O=C(O)c1nn(Cc2ccc(Cl)cc2Cl)c2ccccc12 [LONIDAMINE]	6.4%	0%	4	0	0	0	0	0	0	0	0	0	0	0						
O=C1NCCN1c1ncc([N+](=O)[O-])s1 [NIRIDAZOLE]	0%	0%	2	0	0	0	0	0	0	0	0	0	0	0						
Nc1ccc(S(=O)(=O)Nc2nccs2)cc1 [SULFATHIAZOLE]			1	0				0	0		0	0	0	0	0%	0%	0	0	0	0
